Assay results from patent publication US20230117034A1, “PYRAZOLOTRIAZINES” (Bayer Aktiengesellschaft, priority 2019, published 2023).

Assays:
[1] = system: MDA-MB-231, human breast cancer cells; assay: Proliferation assay MDA-MB-231 (crystal violet, 4 days); type: cell-based; settings: Homo sapiens, MDA-MB-231, 96 h, MDA-MB-231 cells, median, read-out: Prolif-MDA MB-231, IC50-[mol/l] (median)
Method in brief: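 Cells seeded at 4,000/well in medium with 10% FCS; after 24 h, compounds added at 0.01-10 µmol/L (0.1% DMSO) for 4 days. Glutaraldehyde-fixed, crystal violet-stained, absorbance at 595 nm normalized to zero-point plate (0%) and untreated cells (100%); IC50 by 4-parameter fit.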

[2] = target: T1, CDK2/CycE (Homo sapiens, UniProt P24941); assay: CDK2/CycE kinase assay (TR-FRET, 2 mM ATP); type: biochemical; settings: 2 mM ATP (high ATP); median; read-out: CDK2/CyclinE, 2 mM ATP (high ATP), IC50 (median)
T1 construct: purchased ProQinase GmbH (Freiburg, Germany); host or cells: insect cells (Sf9)
Method in brief: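 GST-tagged human CDK2 and CycE from Sf9 cells, about 10 ng/ml, pre-incubated 15 min at 22 °C with compound in Tris/HCl pH 8.0 buffer. Reaction with 2 mM ATP and 0.75 µM biotinylated peptide for 25 min at 22 °C. Phospho-RB antibody TR-FRET (665/620 nm ratio) read after 1 h; data normalised to no-inhibitor and no-enzyme controls.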

[3] = target: T2, CYCLIN K (nuclear staining in CAL-120 cells) (Homo sapiens, UniProt O75909); assay: CYCLIN K nuclear protein level: immunofluorescence high content analysis (CAL-120); type: cell-based; settings: 24 h, 50% reduction of nuclear CCNK staining intensity, median, read-out: CYCLIN K degradation IF, DC50-[mol/l] (median)
T2 construct: endogenous in cells; host or cells: CAL-120 human breast cancer cells (DSMZ ACC 459)
Method in brief: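 CAL-120 breast cancer cells treated in dose-response for 24 h at 37 °C, PFA-fixed and immunostained for cyclin K with Hoechst counterstain. Confocal imaging quantified nuclear intensity; DC50 is the concentration giving 50% reduction of nuclear CCNK staining, normalized to DMSO and control.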

T2 sequence (O75909 whole entry): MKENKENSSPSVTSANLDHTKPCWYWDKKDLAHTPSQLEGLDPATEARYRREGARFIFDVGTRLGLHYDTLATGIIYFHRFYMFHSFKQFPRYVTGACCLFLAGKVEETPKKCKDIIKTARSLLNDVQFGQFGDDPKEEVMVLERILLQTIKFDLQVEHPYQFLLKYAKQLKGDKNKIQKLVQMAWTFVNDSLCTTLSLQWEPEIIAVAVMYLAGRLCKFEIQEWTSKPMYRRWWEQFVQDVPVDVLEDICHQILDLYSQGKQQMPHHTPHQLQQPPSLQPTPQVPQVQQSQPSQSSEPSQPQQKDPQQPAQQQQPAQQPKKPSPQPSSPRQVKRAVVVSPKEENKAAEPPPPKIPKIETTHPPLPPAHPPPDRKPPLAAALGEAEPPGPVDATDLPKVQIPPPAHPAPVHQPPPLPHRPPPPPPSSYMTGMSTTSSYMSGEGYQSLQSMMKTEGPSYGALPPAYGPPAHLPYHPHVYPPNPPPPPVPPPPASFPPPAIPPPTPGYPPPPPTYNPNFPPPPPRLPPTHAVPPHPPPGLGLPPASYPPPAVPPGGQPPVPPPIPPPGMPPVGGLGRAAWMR
T2 sequence (Q9NYV4 whole entry partner): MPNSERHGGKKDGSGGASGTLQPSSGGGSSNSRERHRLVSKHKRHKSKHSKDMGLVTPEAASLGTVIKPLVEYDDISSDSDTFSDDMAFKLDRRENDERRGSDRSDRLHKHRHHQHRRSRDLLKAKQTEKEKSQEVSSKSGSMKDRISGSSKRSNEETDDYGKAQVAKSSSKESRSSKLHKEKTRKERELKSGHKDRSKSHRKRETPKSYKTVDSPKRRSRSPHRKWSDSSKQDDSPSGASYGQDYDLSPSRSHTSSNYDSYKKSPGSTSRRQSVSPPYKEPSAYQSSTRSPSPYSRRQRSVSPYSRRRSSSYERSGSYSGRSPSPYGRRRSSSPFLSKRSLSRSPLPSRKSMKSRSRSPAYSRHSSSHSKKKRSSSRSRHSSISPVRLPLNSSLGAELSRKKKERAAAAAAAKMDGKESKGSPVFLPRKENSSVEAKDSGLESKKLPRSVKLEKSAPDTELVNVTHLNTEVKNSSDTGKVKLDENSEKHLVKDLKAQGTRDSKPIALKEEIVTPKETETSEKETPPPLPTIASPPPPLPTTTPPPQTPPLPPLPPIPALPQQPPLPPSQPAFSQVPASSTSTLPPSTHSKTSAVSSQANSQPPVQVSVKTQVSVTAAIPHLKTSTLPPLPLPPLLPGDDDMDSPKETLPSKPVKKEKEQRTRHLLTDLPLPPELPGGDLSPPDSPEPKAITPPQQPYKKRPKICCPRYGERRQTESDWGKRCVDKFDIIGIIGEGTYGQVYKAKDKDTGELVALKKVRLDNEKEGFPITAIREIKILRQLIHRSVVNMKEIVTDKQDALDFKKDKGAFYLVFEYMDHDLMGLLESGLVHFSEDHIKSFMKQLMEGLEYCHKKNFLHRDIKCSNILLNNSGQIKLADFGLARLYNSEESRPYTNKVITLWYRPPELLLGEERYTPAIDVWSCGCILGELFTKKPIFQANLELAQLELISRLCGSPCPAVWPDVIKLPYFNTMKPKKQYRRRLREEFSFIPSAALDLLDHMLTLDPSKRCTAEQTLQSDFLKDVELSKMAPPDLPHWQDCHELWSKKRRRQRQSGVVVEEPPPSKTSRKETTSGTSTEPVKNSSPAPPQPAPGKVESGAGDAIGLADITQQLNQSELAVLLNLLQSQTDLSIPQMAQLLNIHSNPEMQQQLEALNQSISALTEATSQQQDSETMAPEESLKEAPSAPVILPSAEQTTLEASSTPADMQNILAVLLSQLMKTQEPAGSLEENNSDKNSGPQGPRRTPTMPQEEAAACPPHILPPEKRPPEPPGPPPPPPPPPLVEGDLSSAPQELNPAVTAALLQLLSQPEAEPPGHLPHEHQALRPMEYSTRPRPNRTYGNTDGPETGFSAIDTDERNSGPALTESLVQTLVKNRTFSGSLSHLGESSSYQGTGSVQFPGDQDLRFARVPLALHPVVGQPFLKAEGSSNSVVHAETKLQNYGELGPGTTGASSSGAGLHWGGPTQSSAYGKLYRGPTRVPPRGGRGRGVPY

SMILES | IC50 [1] | IC50 [2] | DC50 [3]
COc1ccc2[nH]c(CNc3nc(N4CCOCC4)nc4c(C(F)(F)F)cnn34)nc2c1 [Example 257, N-[(5-methoxy-1H-benzimidazol-2-yl)methyl]-2-(morpholin-4-yl)-8-(trifluoromethyl)pyrazolo[1,5-a][1,3,5]triazin-4-amine] | 10.7 nM | 16100 nM | 0.864 nM
Fc1ccc2[nH]c(CNc3nc(N4CCOCC4)nc4c(C5CCCC5)cnn34)nc2c1F [Example 262, 8-cyclopentyl-N-[(4,5-difluoro-1H-benzimidazol-2-yl)methyl]-2-(morpholin-4-yl)pyrazolo[1,5-a][1,3,5]triazin-4-amine] | 101 nM | > 20000 nM | 1.94 nM
Fc1ccc2[nH]c(CNc3nc(N4CCOCC4)nc4c(C5CCC5)cnn34)nc2c1F [Example 264, 8-cyclobutyl-N-[(4,5-difluoro-1H-benzimidazol-2-yl)methyl]-2-(morpholin-4-yl)pyrazolo[1,5-a][1,3,5]triazin-4-amine] | 23 nM | > 20000 nM | 1.8 nM
FC(F)(F)Cc1cnn2c(NCc3nc4ccccc4[nH]3)nc(N3CCOCC3)nc12.O=CO [Example 265, formic acid-N-[(1H-benzimidazol-2-yl)methyl]-2-(morpholin-4-yl)-8-(2,2,2-trifluoroethyl)pyrazolo[1,5-a][1,3,5]triazin-4-amine (1/1)] | 106 nM | > 20000 nM | 3.14 nM
Fc1ccc2[nH]c(CNc3nc(N4CCOCC4)nc4c(CC(F)(F)F)cnn34)nc2c1F [Example 268, N-[(4,5-difluoro-1H-benzimidazol-2-yl)methyl]-2-(morpholin-4-yl)-8-(2,2,2-trifluoroethyl)pyrazolo[1,5-a][1,3,5]triazin-4-amine] | 9.43 nM | > 20000 nM | 0.756 nM

Next, values leading:

IC50 [1] | IC50 [2] | DC50 [3] | SMILES
30.6 nM | 13300 nM | 2.42 nM | CN[C@H]1CCN(c2nc(NCc3nc4ccccc4[nH]3)n3ncc(Br)c3n2)C1 [Example 252, N-[(1H-benzimidazol-2-yl)methyl]-8-bromo-2-[(3S)-3-(methylamino)pyrrolidin-1-yl]pyrazolo[1,5-a][1,3,5]triazin-4-amine]
32.8 nM | 12200 nM | 1.82 nM | CN[C@@H]1CCN(c2nc(NCc3nc4ccccc4[nH]3)n3ncc(Br)c3n2)C1 [Example 253, N-[(1H-benzimidazol-2-yl)methyl]-8-bromo-2-[(3R)-3-(methylamino)pyrrolidin-1-yl]pyrazolo[1,5-a][1,3,5]triazin-4-amine]
181 nM | > 20000 nM | 4.17 nM | c1ccc2[nH]c(CNc3nc(N4C[C@@H]5C[C@H]4CO5)nc4c(C5CC5)cnn34)nc2c1 [Example 254, N-[(1H-benzimidazol-2-yl)methyl]-8-cyclopropyl-2-[(1S,4S)-2-oxa-5-azabicyclo[2.2.1]heptan-5-yl]pyrazolo[1,5-a][1,3,5]triazin-4-amine]
12.6 nM | 5060 nM | 0.326 nM | NC1CCN(c2nc(NCc3nc4ccccc4[nH]3)n3ncc(Br)c3n2)CC1 [Example 256, 2-(4-aminopiperidin-1-yl)-N-[(1H-benzimidazol-2-yl)methyl]-8-bromopyrazolo[1,5-a][1,3,5]triazin-4-amine]
73.2 nM | > 20000 nM | 1.82 nM | c1ccc2[nH]c(CNc3nc(N4CCOCC4)nc4c(C5CCC5)cnn34)nc2c1 [Example 263, N-[(1H-benzimidazol-2-yl)methyl]-8-cyclobutyl-2-(morpholin-4-yl)pyrazolo[1,5-a][1,3,5]triazin-4-amine]
29.3 nM | 4840 nM | 0.324 nM | Brc1cnn2c(NCc3nc4ccccc4[nH]3)nc(N3C[C@H]4C[C@@H]3CN4)nc12 [Example 269, N-[(1H-benzimidazol-2-yl)methyl]-8-bromo-2-[(1R,4R)-2,5-diazabicyclo[2.2.1]heptan-2-yl]pyrazolo[1,5-a][1,3,5]triazin-4-amine]
